Results on 13 molecules are retold here after patent EP0558245A1, “Heterobicyclic compounds as antagogists of alpha-1 adrenergic and SHT1A receptors” (priority 1992, dated 1993).

Each structure is given as a SMILES string. Structures can show the parent of a compound that is named as a salt. Where two headings read alike, the source gives them in different places.

Data set [1] concerns rat bladder strips. Description: K+-induced contractions of rat bladder strips. In kind it is cell-based. Here is the method:
The whole bladder of the rat was removed and immediately placed in Krebs solution warmed at 37°C. […] Each strip was placed in a 10 ml organ bath and connected, under a constant load of 1 g, to an isometric strain gauge (DY-1 Basile, Comerio, Varese, Italy). […] After a 60 minutes equilibration period the strips were exposed to 80 mM KCl (final concentration). […] When the tonic contraction was stable, the strips were washed and 30 minutes later a new contraction was induced. After having recorded two or more reproducible responses, one concentration of the tested drugs was added to the bath and 30 minutes later a new contraction was induced. The experimental groups consisted of at least two preparations taken from different animals for each concentration of drug tested. The IC₅₀ values of inhibition of agonist-induced contractions were evaluated by linear regression analysis.

Data set [2] concerns the target α₁ receptors. Description: [3H]prazosin binding (α1 receptors), rat cerebral cortex membranes. To be noted: for IC50: rat cerebral cortex crude membranes, [3H]prazosin 0.35 nM, 25°C 30 min, read-out: Receptor Binding IC50 (nM) α1.
Description: Rat cerebral cortices were homogenized in 50 volumes of original wet weight of ice-cold 50 mM Tris-HCl buffer pH 7.4. The homogenates were centrifuged at 48,000 x g for 10 minutes, and the pellets were resuspended in the same volume of ice-cold buffer, centrifuged and resuspended two more times. The final pellets obtained were resuspended in the same volume of buffer and incubated according to the conditions reported in the table below.
The incubations were terminated after the appropriate time (see table) by rapid filtration through Whatman GF/B filters using a Brandel cell harvester. The filters were washed twice with 15 ml of ice-cold buffer (see table). The radioactivity retained on the filters was determined by liquid scintillation counting. Nonspecific binding (which amounted generally to 10-30%) was evaluated by adding high concentrations of the specific displacers (see table). All the compounds were initially tested at 1x10⁻⁶ M concentration, and in the presence of significant displacing activity, a complete competition curve was generated (down to a concentration of 10⁻¹¹ M). All the samples were run in triplicate.
Data set [3] can be described thus: Acute toxicity in mice after intraperitoneal and oral administration. Particulars: mouse, in vivo, female albino Swiss mice, mortality recorded 7 days after administration. Put shortly: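 Female albino Swiss mice (20-30 g) dosed i.p. or orally at four log-scaled doses in 0.5% Methocel (10 ml/kg), 4 mice/dose. Mortality recorded at 7 days; LD₅₀ with fiducial limits by Weil's method.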

The target in data set [4] is T1, 5HT1A receptors (Rattus norvegicus, UniProt P19327).
T1 construct: Rat hippocampi were homogenized; from tissue; host or cells: rat hippocampus membranes
T1 sequence (P19327 1-422): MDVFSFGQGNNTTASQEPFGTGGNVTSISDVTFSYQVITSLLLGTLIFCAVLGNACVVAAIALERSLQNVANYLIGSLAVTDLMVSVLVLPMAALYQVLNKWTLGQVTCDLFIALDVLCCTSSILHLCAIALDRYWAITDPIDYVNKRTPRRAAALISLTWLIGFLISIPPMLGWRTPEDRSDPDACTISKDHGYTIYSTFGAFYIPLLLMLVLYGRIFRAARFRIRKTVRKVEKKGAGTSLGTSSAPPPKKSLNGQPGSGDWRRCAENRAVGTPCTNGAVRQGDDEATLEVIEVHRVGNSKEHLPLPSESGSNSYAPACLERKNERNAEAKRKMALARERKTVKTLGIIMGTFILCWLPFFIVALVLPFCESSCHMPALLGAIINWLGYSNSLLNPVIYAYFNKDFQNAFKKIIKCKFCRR
Description: [3H]8-OH-DPAT binding (5HT1A receptors), rat hippocampus membranes. Particulars: for IC50: rat hippocampus crude membranes, [3H]8-OH-DPAT 1.0 nM, 25°C 30 min, read-out: Receptor Binding IC50 (nM) 5-HT1a.

[5] abbreviates: 80 mM KCl, phasic contraction, drug added 30 minutes before, read-out: K+ Stimulation of Rat Bladder IC50 (μM) Contractions Phasic.
Setting [6] is: 80 mM KCl, tonic contraction, drug added 30 minutes before, read-out: K+ Stimulation of Rat Bladder IC50 (μM) Contractions Tonic.
Where [7] appears, read: ip, intraperitoneal, read-out: Acute Toxicity in Mice LD50 (mg/kg) i.p.
Where [8] appears, read: oral, read-out: Acute Toxicity in Mice LD50 (mg/kg) p.o.

Turning to `Cc1c(-c2ccccc2)oc2c(C(=O)OCCN3CCCCC3)cccc2c1=O` [Flavoxate, 8-(2-piperidinoethoxycarbonyl)-3-methyl-4-oxo-2-phenyl-4H-1-benzopyran, reference compound], the concentration for half-maximal inhibition (IC50) – broadly, the midpoint of a concentration-inhibition curve – in data set [1] (setting [5]) was 13 µM; in data set [1] (setting [6]) it was 13 µM; in data set [2] it was more than 1000 nM; in data set [4] it was more than 1000 nM. The “affinity for the α₁-adrenergic receptors” value in data set [2] (statement in words) is “practically devoid of affinity”. The figures for the LD50 at 168 h in data set [3] (setting [7]) and in data set [3] (setting [8]) were 385 mg/kg and 808 mg/kg, respectively. Also, in data set [4] (statement in words), the “affinity for the 5HT1A-serotoninergic receptors” value is “practically devoid of affinity”.

Turning to `COc1ccccc1N1CCN(CCNc2cccc3c(=O)c(C)c(-c4ccccc4)oc23)CC1.Cl.Cl` [Example 32, 8-{2-[4-(2-methoxyphenyl)-1-piperazinyl]-ethylamino}-3-methyl-4-oxo-2-phenyl-4H-1-benzopyran dihydrochloride], the IC50 was 10 µM in data set [1] (setting [5]), more than 10 µM in data set [1] (setting [6]), 119 nM in data set [2] and 46 nM in data set [4]. Moreover, the LD50 at 168 h in data set [3] (setting [7]) was 301 mg/kg; in data set [3] (setting [8]) it was more than 2000 mg/kg.

In the case of `COc1ccccc1N1CCN(CCCNc2cccc3c(=O)c(C)c(-c4ccccc4)oc23)CC1` [Example 33, 8-{3-[4-(2-methoxyphenyl)-1-piperazinyl]-propylamino}-3-methyl-4-oxo-2-phenyl-4H-1-benzopyran hydrochloride 2.75-hydrate], the concentration for half-maximal inhibition (IC50) in data set [1] (setting [5]) came out at 10 µM; in data set [1] (setting [6]), 10 µM; in data set [2], 17 nM; in data set [4], 38 nM. Further, the LD50 at 168 h in data set [3] (setting [7]) is 399 mg/kg; in data set [3] (setting [8]), more than 2000 mg/kg.

For `COc1ccccc1N1CCN(CCCCNc2cccc3c(=O)c(C)c(-c4ccccc4)oc23)CC1` [Example 34, 8-{4-[4-(2-methoxyphenyl)-1-piperazinyl]-butylamino}-3-methyl-4-oxo-2-phenyl-4H-1-benzopyran hydrochloride hemihydrate], the IC50 in data set [1] (setting [5]) amounted to 2.8 µM; in data set [1] (setting [6]), 3.6 µM; in data set [2], 30 nM; in data set [4], 34 nM. In data set [3] (setting [7]), the LD50 at 168 h is more than 500 mg/kg.

Turning to `COc1ccccc1N1CCN(CCN(C)C(=O)c2cccc3c(=O)c(C)c(-c4ccccc4)oc23)CC1.Cl` [Example 16, 8-{N-methyl-2-[4-(2-methoxyphenyl)-1-piperazinyl]-ethylcarbamoyl}-3-methyl-4-oxo-2-phenyl-4H-1-benzopyran monohydrochloride], the IC50 in data set [1] (setting [5]) turned out to be 1.6 µM; in data set [1] (setting [6]) it was 2.2 µM; in data set [2], 220 nM; in data set [4], 1050 nM. For the same molecule, the LD50 at 168 h in data set [3] (setting [7]) is 345 mg/kg; in data set [3] (setting [8]), 778 mg/kg.

For `COc1ccccc1N1CCN(CCSCc2cccc3c(=O)c(C)c(-c4ccccc4)oc23)CC1.Cl` [Example 29, 8-{2-[4-(2-methoxyphenyl)-1-piperazinyl]-ethylthiomethyl}-3-methyl-4-oxo-2-phenyl-4H-1-benzopyran hydrochloride], the IC50 in data set [1] (setting [5]) was found to be 10 µM; in data set [1] (setting [6]) it was 10 µM; in data set [2], 86 nM; in data set [4] it was 45 nM. For the same molecule, the LD50 at 168 h in data set [3] (setting [7]) is 730 mg/kg; in data set [3] (setting [8]), more than 3000 mg/kg.

Take `COc1cccc(OC)c1OCCNCCOc1cccc2c(=O)c(C)c(-c3ccccc3)oc12.Cl` [Example 44, 8-{2-[2-(2,6-dimethoxyphenoxy)-ethylamino]-ethoxy}-3-methyl-4-oxo-2-phenyl-4H-1-benzopyran hydrochloride]: the IC50 in data set [1] (setting [5]) turned out to be 0.6 µM; in data set [1] (setting [6]) it was 0.5 µM; in data set [2], 685 nM; in data set [4], 201 nM. Moreover, the LD50 at 168 h in data set [3] (setting [7]) was 84 mg/kg; in data set [3] (setting [8]), 399 mg/kg.

In the case of `COc1ccccc1N1CCN(CCC(O)c2cccc3c(=O)c(C)c(-c4ccccc4)oc23)CC1.Cl` (stereo not drawn) [Example 20, 8-{1-Hydroxy-3-[4-(2-methoxyphenyl)-1-piperazinyl]-propyl}-3-methyl-4-oxo-2-phenyl-4H-1-benzopyran hydrochloride], the half-maximal inhibitory concentration (IC50) is 2.7 µM in data set [1] (setting [5]), 2.5 µM in data set [1] (setting [6]), 169 nM in data set [2] and 85 nM in data set [4]. In addition, the LD50 at 168 h in data set [3] (setting [7]) stood at 297 mg/kg; in data set [3] (setting [8]), 594 mg/kg.

For `COc1ccccc1N1CCN(CCCCOc2cccc3c(=O)c(C)c(-c4ccccc4)oc23)CC1.Cl.Cl` [dihydrochloride], the IC50 is 0.7 µM in data set [1] (read-out: K+ Stimulation of Rat Bladder IC50 (μM) Contractions Phasic), 1.4 µM in data set [1] (read-out: K+ Stimulation of Rat Bladder IC50 (μM) Contractions Tonic), 43 nM in data set [2] and 53 nM in data set [4].

Regarding `CS(=O)(=O)O.Cc1c(-c2ccccc2)oc2c(C(=O)NCCCN3CCC(c4ccccc4)CC3)cccc2c1=O` [Example 54, 8-[3-(4-phenyl-1-piperidinyl)-propylcarbamoyl]-3-methyl-4-oxo-2-phenyl-4H-1-benzopyran methansulphonate], the results for the IC50 in data set [2] and in data set [4] were 35 nM and 143 nM, respectively. Also, the LD50 at 168 h in data set [3] (setting [7]) came to 106 mg/kg; in data set [3] (setting [8]), 421 mg/kg.

With `COc1ccccc1N1CCN(CC(=O)N(C)Cc2cccc3c(=O)c(C)c(-c4ccccc4)oc23)CC1` [Example 26, 8-{N-methyl-N-[4-(2-methoxyphenyl)-1-piperazinyl]-acetamidomethyl}-3-methyl-4-oxo-2-phenyl-4H-1-benzopyran hydrochloride hydrate], the figures for the IC50 in data set [2] and in data set [4] were 270 nM and more than 1000 nM, respectively. Besides, the LD50 at 168 h in data set [3] (setting [7]) was more than 500 mg/kg; in data set [3] (setting [8]) it was more than 2000 mg/kg.

Regarding `CS(=O)(=O)O.Cc1c(-c2ccccc2)oc2c(C(=O)NCCCN3CCN(c4ncccn4)CC3)cccc2c1=O` [Example 58, 8-{3-[4-(2-pyrimidinyl)-1-piperazinyl]-propylcarbamoyl}-3-methyl-4-oxo-2-phenyl-4H-1-benzopyran methanesulphonate], the IC50 in data set [2] is not below 1000 nM; in data set [4], 126 nM. Moreover, the LD50 at 168 h in data set [3] (setting [7]) was 258 mg/kg; in data set [3] (setting [8]), 508 mg/kg.

As to `COc1ccccc1N1CCN(CCCNS(=O)(=O)c2cccc3c(=O)c(C)c(-c4ccccc4)oc23)CC1.CS(=O)(=O)O` [Example 61, 8-{3-[4-(2-methoxyphenyl)-1-piperazinyl]-propylsulphamoyl}-3-methyl-4-oxo-2-phenyl-4H-1-benzopyran methanesulphonate], the half-maximal inhibitory concentration (IC50) in data set [2] turned out to be 36 nM; in data set [4], 11 nM. The LD50 at 168 h in data set [3] (setting [7]) came out at 315 mg/kg; in data set [3] (setting [8]) it was 592 mg/kg.
